Source: patent US20260184710A1, “CASITAS B-LINEAGE LYMPHOMA PROTOONCOGENE B (CBL-B) DEGRADING COMPOUNDS AND ASSOCIATED METHODS OF USE” (Arvinas Operations, Inc., priority 2022, published 2026)

Assays:
Cbl-b [1] = biological target: T1, Cbl-b (Homo sapiens, UniProt Q13191); experiment: Cbl-b Degradation Method A (FACS, anti-Cbl-b antibody staining); type: cell-based; conditions: Cbl-b-HiBit KI Jurkat Cells, incubated at least 20 hours; for DC50: half maximal degradation, read-out: Cbl-b Degredation Method A IC50; for Dmax: Jurkat, maximum degradation observed, read-out: Cbl-b Degredation Method A Dmax (%)
T1 construct: Cbl-b-HiBit KI Jurkat Cells were purchased from Promega; host or cells: Cbl-b-HiBiT knock-in Jurkat cells
T1 sequence (Q13191 whole entry): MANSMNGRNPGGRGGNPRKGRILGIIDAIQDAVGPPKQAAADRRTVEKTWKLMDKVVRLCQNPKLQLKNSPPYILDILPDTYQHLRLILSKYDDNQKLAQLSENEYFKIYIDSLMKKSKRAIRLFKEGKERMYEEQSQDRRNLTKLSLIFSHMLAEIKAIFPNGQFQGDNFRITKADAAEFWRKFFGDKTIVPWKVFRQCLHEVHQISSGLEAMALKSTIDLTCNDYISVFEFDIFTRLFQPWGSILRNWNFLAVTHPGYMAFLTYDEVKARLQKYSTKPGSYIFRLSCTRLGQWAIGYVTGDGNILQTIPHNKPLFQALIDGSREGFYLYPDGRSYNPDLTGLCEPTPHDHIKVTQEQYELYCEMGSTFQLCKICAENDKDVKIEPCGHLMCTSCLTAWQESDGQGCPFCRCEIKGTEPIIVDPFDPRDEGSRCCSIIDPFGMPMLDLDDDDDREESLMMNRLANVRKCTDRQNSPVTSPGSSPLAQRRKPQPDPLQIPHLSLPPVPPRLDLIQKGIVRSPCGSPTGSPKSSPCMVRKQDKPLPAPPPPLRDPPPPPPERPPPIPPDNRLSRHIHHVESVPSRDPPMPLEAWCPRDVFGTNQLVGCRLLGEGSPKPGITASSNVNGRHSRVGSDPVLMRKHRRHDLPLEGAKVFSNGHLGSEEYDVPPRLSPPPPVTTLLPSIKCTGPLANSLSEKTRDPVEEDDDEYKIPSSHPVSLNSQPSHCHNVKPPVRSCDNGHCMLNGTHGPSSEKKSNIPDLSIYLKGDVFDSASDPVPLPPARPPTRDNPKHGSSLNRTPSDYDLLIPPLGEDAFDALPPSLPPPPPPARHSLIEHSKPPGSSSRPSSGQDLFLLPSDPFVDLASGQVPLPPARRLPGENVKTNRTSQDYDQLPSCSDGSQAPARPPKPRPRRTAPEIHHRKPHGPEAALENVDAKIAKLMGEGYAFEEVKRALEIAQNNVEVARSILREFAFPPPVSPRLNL
How it was run: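 Readout is flow cytometry of fixed, permeabilized cells immunostained for Cbl-b (primary 1:200, AF488 secondary). Cells were Cbl-b-HiBit knock-in Jurkat, exposed to compound ≥20 h at 37 °C; half-maximal degradation concentration (DC50) and maximal degradation (Dmax) calculated relative to control.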

Cbl-b [2] = biological target: T1, Cbl-b; experiment: Cbl-b Degradation Method B (Nano-Glo HiBiT lytic detection); type: cell-based; conditions: Cbl-b-HiBit KI Jurkat Cells, incubated at least 6-24 hours; for DC50: half maximal degradation, read-out: Cbl-b Degredation Method B IC50; for Cbl-b Degredation Method B Dmax (%): maximum degradation observed
How it was run: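 An 11-point, 3-fold compound dilution was applied for 6-24 hours to Jurkat cells carrying HiBiT-tagged endogenous Cbl-b. Lytic HiBiT luminescence quantified residual protein. Outputs are DC50 and Dmax relative to DMSO control.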

| Structure (SMILES) | DC50 (Cbl-b [1]) | Dmax (Cbl-b [1]) | DC50 (Cbl-b [2]) | Cbl-b Degredation Method B Dmax (%) (Cbl-b [2]) |
| --- | --- | --- | --- | --- |
| CC1c2nc(N3CCC(CN4CCC(CN5CCN(Cc6cc7c(c(C(F)(F)F)c6)CN(c6cccc([C@]8(Cc9nncn9C)C[C@@H](C#N)C8)c6)C7=O)C(C)(C)C5)CC4)CC3)ccc2C(=O)N1C1CCC(=O)NC1=O (some centres unmarked) [Example 303, (1r,3r)-3-(3-{6-[(4-{[1-({1-[6-(2,6-dioxopiperidin-3-yl)-7-methyl-5-oxo-5H,6H,7H-pyrrolo[3,4-b]pyridin-2-yl]piperidin-4-yl}methyl)piperidin-4-yl]methyl}-2,2-dimethylpiperazin-1-yl)methyl]-1-oxo-4-(trifluoromethyl)-2,3-dihydro-1H-isoindol-2-yl}phenyl)-3-[(4-methyl-4H-1,2,4-triazol-3-yl)methyl]cyclobutane-1-carbonitrile] | 5 to 50 nM | 35 to 70% | < 5 nM | C (C ≤ 35) |
| CC1c2nc(N3CCC(CN4CCN(CC5CCN(Cc6cc7c(c(C(F)(F)F)c6)CN(c6cccc([C@]8(Cc9nncn9C)C[C@@H](C#N)C8)c6)C7=O)C6(CC6)C5)CC4)CC3)ccc2C(=O)N1C1CCC(=O)NC1=O (some centres unmarked) [Example 310, (1r,3r)-3-(3-{6-[(7-{[4-({1-[6-(2,6-dioxopiperidin-3-yl)-7-methyl-5-oxo-5H,6H,7H-pyrrolo[3,4-b]pyridin-2-yl]piperidin-4-yl}methyl)piperazin-1-yl]methyl}-4-azaspiro[2.5]octan-4-yl)methyl]-1-oxo-4-(trifluoromethyl)-2,3-dihydro-1H-isoindol-2-yl}phenyl)-3-[(4-methyl-4H-1,2,4-triazol-3-yl)methyl]cyclobutane-1-carbonitrile] | 5 to 50 nM | 35 to 70% | 5 to 50 nM | C (C ≤ 35) |
| Cn1cnnc1CC1(c2cccc(N3Cc4c(cc(CN5CCN(C[C@H]6CC[C@H](OC7CCN(c8cccc9c8n(C8CC8)c(=O)n9C8CCC(=O)NC8=O)CC7)CC6)CC5(C)C)cc4C(F)(F)F)C3=O)c2)CC(C#N)C1 (some centres unmarked) [Example 312, (1r**,3r**)-3-(3-{6-[(2,2-dimethyl-4-{[(1r*,4r*)-4-({1-[3-cyclopropyl-1-(2,6-dioxopiperidin-3-yl)-2-oxo-2,3-dihydro-1H-1,3-benzodiazol-4-yl]piperidin-4-yl}oxy)cyclohexyl]methyl}piperazin-1-yl)methyl]-1-oxo-4-(trifluoromethyl)-2,3-dihydro-1H-isoindol-2-yl}phenyl)-3-[(4-methyl-4H-1,2,4-triazol-3-yl)methyl]cyclobutane-1-carbonitrile] | 50 to 500 nM | 35 to 70% | < 5 nM | C (C ≤ 35) |
| Cn1cnnc1CC1(c2cccc(N3Cc4c(cc(CN5CCN(C[C@H]6CC[C@H](OC7CCN(c8cccc9c8ncn9C8CCC(=O)NC8=O)CC7)CC6)CC5(C)C)cc4C(F)(F)F)C3=O)c2)CC(C#N)C1 (some centres unmarked) [Example 314, (1r**,3r**)-3-(3-{6-[(2,2-dimethyl-4-{[(1r*,4r*)-4-({1-[1-(2,6-dioxopiperidin-3-yl)-1H-1,3-benzodiazol-4-yl]piperidin-4-yl}oxy)cyclohexyl]methyl}piperazin-1-yl)methyl]-1-oxo-4-(trifluoromethyl)-2,3-dihydro-1H-isoindol-2-yl}phenyl)-3-[(4-methyl-4H-1,2,4-triazol-3-yl)methyl]cyclobutane-1-carbonitrile] | 5 to 50 nM | 35 to 70% | 50 to 500 nM | B (35 < B < 70) |
| Cn1cnnc1CC1(c2cccc(N3Cc4c(cc(CN5CCN(C[C@H]6CC[C@H](OC7CCN(c8cccc9c8CC(=O)N9C8CCC(=O)NC8=O)CC7)CC6)CC5(C)C)cc4C(F)(F)F)C3=O)c2)CC(C#N)C1 (some centres unmarked) [Example 315, (1r**,3r**)-3-(3-{6-[(2,2-dimethyl-4-{[(1r*,4r*)-4-({1-[1-(2,6-dioxopiperidin-3-yl)-2-oxo-2,3-dihydro-1H-indol-4-yl]piperidin-4-yl}oxy)cyclohexyl]methyl}piperazin-1-yl)methyl]-1-oxo-4-(trifluoromethyl)-2,3-dihydro-1H-isoindol-2-yl}phenyl)-3-[(4-methyl-4H-1,2,4-triazol-3-yl)methyl]cyclobutane-1-carbonitrile] | 50 to 500 nM | 35 to 70% | < 5 nM | C (C ≤ 35) |
| Cn1cnnc1CC1(c2cccc(N3Cc4c(cc(CN5CCN(C[C@H]6CC[C@H](OC7CCN(c8ccc9c(c8)CC(=O)N9C8CCC(=O)NC8=O)CC7)CC6)CC5(C)C)cc4C(F)(F)F)C3=O)c2)CC(C#N)C1 (some centres unmarked) [Example 316, (1r**,3r**)-3-(3-{6-[(2,2-dimethyl-4-{[(1r*,4r*)-4-({1-[1-(2,6-dioxopiperidin-3-yl)-2-oxo-2,3-dihydro-1H-indol-5-yl]piperidin-4-yl}oxy)cyclohexyl]methyl}piperazin-1-yl)methyl]-1-oxo-4-(trifluoromethyl)-2,3-dihydro-1H-isoindol-2-yl}phenyl)-3-[(4-methyl-4H-1,2,4-triazol-3-yl)methyl]cyclobutane-1-carbonitrile] | 50 to 500 nM | > 70% | < 5 nM | C (C ≤ 35) |

Further lines, results first:

| DC50 (Cbl-b [1]) | Dmax (Cbl-b [1]) | DC50 (Cbl-b [2]) | Cbl-b Degredation Method B Dmax (%) (Cbl-b [2]) | Structure (SMILES) |
| --- | --- | --- | --- | --- |
| 50 to 500 nM | 35 to 70% | < 5 nM | C (C ≤ 35) | CC(C)n1c(=O)n(C2CCC(=O)NC2=O)c2cccc(N3CCC(O[C@H]4CC[C@H](CN5CCC6(CCN(Cc7cc8c(c(C(F)(F)F)c7)CN(c7cccc([C@]9(Cc%10nncn%10C)C[C@@H](C#N)C9)c7)C8=O)CC6)CC5)CC4)CC3)c21 (some centres unmarked) [Example 317, (1r,3r)-3-[(4-methyl-4H-1,2,4-triazol-3-yl)methyl]-3-(3-{1-oxo-6-[(9-{[(1r,4r)-4-({1-[1-(2,6-dioxopiperidin-3-yl)-2-oxo-3-(propan-2-yl)-2,3-dihydro-1H-1,3-benzodiazol-4-yl]piperidin-4-yl}oxy)cyclohexyl]methyl}-3,9-diazaspiro[5.5]undecan-3-yl)methyl]-4-(trifluoromethyl)-2,3-dihydro-1H-isoindol-2-yl}phenyl)cyclobutane-1-carbonitrile] |
| 50 to 500 nM | 35 to 70% | < 5 nM | C (C ≤ 35) | CC(C)n1c(=O)n(C2CCC(=O)NC2=O)c2ccc(N3CCC(O[C@H]4CC[C@H](CN5CCN(Cc6cc7c(c(C(F)(F)F)c6)CN(c6cccc(C8(Cc9nncn9C)CC(C#N)C8)c6)C7=O)C(C)(C)C5)CC4)CC3)c(F)c21 (some centres unmarked) [Example 318, (1r**,3r**)-3-(3-{6-[(2,2-dimethyl-4-{[(1r*,4r*)-4-({1-[1-(2,6-dioxopiperidin-3-yl)-4-fluoro-2-oxo-3-(propan-2-yl)-2,3-dihydro-1H-1,3-benzodiazol-5-yl]piperidin-4-yl}oxy)cyclohexyl]methyl}piperazin-1-yl)methyl]-1-oxo-4-(trifluoromethyl)-2,3-dihydro-1H-isoindol-2-yl}phenyl)-3-[(4-methyl-4H-1,2,4-triazol-3-yl)methyl]cyclobutane-1-carbonitrile] |
| 50 to 500 nM | > 70% | < 5 nM | C (C ≤ 35) | CC(C)n1c(=O)n(C2CCC(=O)NC2=O)c2cccc(N3CCC(O[C@H]4CC[C@H](CN5CCC6(CC5)CN(Cc5cc7c(c(C(F)(F)F)c5)CN(c5cccc([C@]8(Cc9nncn9C)C[C@@H](C#N)C8)c5)C7=O)C6)CC4)CC3)c21 (some centres unmarked) [Example 320, (1r,3r)-3-[(4-methyl-4H-1,2,4-triazol-3-yl)methyl]-3-(3-{1-oxo-6-[(7-{[(1r,4r)-4-({1-[1-(2,6-dioxopiperidin-3-yl)-2-oxo-3-(propan-2-yl)-2,3-dihydro-1H-1,3-benzodiazol-4-yl]piperidin-4-yl}oxy)cyclohexyl]methyl}-2,7-diazaspiro[3.5]nonan-2-yl)methyl]-4-(trifluoromethyl)-2,3-dihydro-1H-isoindol-2-yl}phenyl)cyclobutane-1-carbonitrile] |
| 5 to 50 nM | < 35% | < 5 nM | C (C ≤ 35) | CC(C)n1c(=O)n(C2CCC(=O)NC2=O)c2cccc(N3CCC(O[C@H]4CC[C@H](CN5CC6(CCN(Cc7cc8c(c(C(F)(F)F)c7)CN(c7cccc([C@]9(Cc%10nncn%10C)C[C@@H](C#N)C9)c7)C8=O)CC6)C5)CC4)CC3)c21 (some centres unmarked) [Example 321, (1r,3r)-3-[(4-methyl-4H-1,2,4-triazol-3-yl)methyl]-3-(3-{1-oxo-6-[(2-{[(1r,4r)-4-({1-[1-(2,6-dioxopiperidin-3-yl)-2-oxo-3-(propan-2-yl)-2,3-dihydro-1H-1,3-benzodiazol-4-yl]piperidin-4-yl}oxy)cyclohexyl]methyl}-2,7-diazaspiro[3.5]nonan-7-yl)methyl]-4-(trifluoromethyl)-2,3-dihydro-1H-isoindol-2-yl}phenyl)cyclobutane-1-carbonitrile] |
| 50 to 500 nM | > 70% | 5 to 50 nM | C (C ≤ 35) | CC(C)n1c(=O)n(C2CCC(=O)NC2=O)c2cccc(N3CCC(O[C@H]4CC[C@H](CN5CCN(Cc6cc7c(c(C(F)(F)F)c6)CN(c6cccc([C@]8(Cc9nncn9C)C[C@@H](C#N)C8)c6)C7=O)C6(COC6)C5)CC4)CC3)c21 (some centres unmarked) [Example 322, (1r,3r)-3-[(4-methyl-4H-1,2,4-triazol-3-yl)methyl]-3-(3-{1-oxo-6-[(8-{[(1r,4r)-4-({1-[1-(2,6-dioxopiperidin-3-yl)-2-oxo-3-(propan-2-yl)-2,3-dihydro-1H-1,3-benzodiazol-4-yl]piperidin-4-yl}oxy)cyclohexyl]methyl}-2-oxa-5,8-diazaspiro[3.5]nonan-5-yl)methyl]-4-(trifluoromethyl)-2,3-dihydro-1H-isoindol-2-yl}phenyl)cyclobutane-1-carbonitrile] |
